Measurements published in US20260132132A1, “3A,4,5,6-TETRAHYDRO-1 H-PYRAZOLO[3,4-C]PYRIDIN-7(7AH)-ONE DERIVATIVES AS FACTOR XIIA INHIBITORS” (KALVISTA PHARMACEUTICALS LIMITED, priority 2022, published 2026).

Columns and labels:
[1] = target: T1, Human Factor XIIa (hFXIIa) (Homo sapiens, UniProt P00748); assay: Determination of Human Factor XIIa (hFXIIa) inhibition, fluorogenic substrate IC50 assay; type: biochemical; conditions: fluorogenic substrate H-DPro-Phe-Arg-AFC at Km, 25° C., read-out: Human FXIIa IC50
T1 construct: purchased Enzyme Research Laboratories
T1 sequence (P00748 373-615 limits assumed): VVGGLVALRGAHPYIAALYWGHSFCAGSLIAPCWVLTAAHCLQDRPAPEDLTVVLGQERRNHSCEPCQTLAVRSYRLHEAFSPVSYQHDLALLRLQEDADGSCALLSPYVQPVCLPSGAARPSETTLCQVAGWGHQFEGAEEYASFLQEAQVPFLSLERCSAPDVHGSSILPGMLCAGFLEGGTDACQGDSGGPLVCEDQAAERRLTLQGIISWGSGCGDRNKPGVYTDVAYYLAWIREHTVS
T1 sequence (P00748 20-372 partner limits assumed): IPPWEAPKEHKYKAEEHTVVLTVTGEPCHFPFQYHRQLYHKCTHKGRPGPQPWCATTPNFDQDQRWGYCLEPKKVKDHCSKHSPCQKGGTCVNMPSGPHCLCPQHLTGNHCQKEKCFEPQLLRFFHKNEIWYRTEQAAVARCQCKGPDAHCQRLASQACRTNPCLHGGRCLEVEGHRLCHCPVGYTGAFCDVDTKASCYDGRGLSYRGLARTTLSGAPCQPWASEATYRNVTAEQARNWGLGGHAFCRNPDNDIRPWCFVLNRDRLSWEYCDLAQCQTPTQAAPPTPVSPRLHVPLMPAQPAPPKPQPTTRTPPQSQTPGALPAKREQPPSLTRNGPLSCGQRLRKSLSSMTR
Method: Determination of Human Factor XIIa (hFXIIa) inhibition
The Km for the cleavage of the substrate by hFXIIa was determined by standard transformation of the Michaelis-Menten equation, with subsequent inhibition assays performed at substrate Km concentration.

[2] = target: FXa (Homo sapiens, UniProt P00742); assay: Related protease inhibition: FXa, fluorogenic substrate; type: biochemical; conditions: fluorogenic substrate at Km, 25° C.; H1-H3 = % activity at 40 μM
Sequence of FXa (P00742 235-488 limits assumed): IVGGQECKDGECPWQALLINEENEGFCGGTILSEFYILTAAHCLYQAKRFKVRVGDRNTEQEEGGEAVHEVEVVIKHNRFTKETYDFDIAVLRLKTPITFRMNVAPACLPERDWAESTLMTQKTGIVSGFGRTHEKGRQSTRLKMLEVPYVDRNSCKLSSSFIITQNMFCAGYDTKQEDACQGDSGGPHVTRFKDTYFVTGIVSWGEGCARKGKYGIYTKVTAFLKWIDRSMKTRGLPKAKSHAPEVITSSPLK
Sequence of FXa (P00742 41-179 partner limits assumed): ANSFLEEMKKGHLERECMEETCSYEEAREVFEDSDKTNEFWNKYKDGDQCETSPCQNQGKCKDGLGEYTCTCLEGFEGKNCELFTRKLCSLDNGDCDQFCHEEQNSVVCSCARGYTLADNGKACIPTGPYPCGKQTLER
Method: Human serine protease enzyme Plasma Kallikrein, KLK1, FXa, Plasmin, Thrombin and Trypsin were assayed for enzymatic activity using an appropriate fluorogenic substrate at Km concentration, FXIa at fixed substrate concentration of 100 μM and various concentrations of the test compound.

Row | Compound | IC50 [1] | IC50 [2]
1 | CCNC(=O)c1nn(-c2cccc(Cl)c2)c2c(=O)n(-c3ccc4c(c3)C(=O)N(C)CC4)c(C)nc12 [Example 3022, 1-(3-chlorophenyl)-N-ethyl-5-methyl-6-(2-methyl-1-oxo-1,2,3,4-tetrahydroisoquinolin-7-yl)-7-oxo-6,7-dihydro-1H-pyrazolo[4,3-d]pyrimidine-3-carboxamide] | 300 to 1000 nM | 10 to 40 µM
2 | Cc1cc(CNC(=O)c2nn(-c3cccc(Cl)c3)c3c2CCN(c2ccc4c(c2)C(=O)N(C)[C@H](CO)CO4)C3=O)nn1C [Example 1351, (R)-1-(3-chlorophenyl)-N-((1,5-dimethyl-1H-pyrazol-3-yl)methyl)-6-(3-(hydroxymethyl)-4-methyl-5-oxo-2,3,4,5-tetrahydrobenzo[f][1,4]oxazepin-7-yl)-7-oxo-4,5,6,7-tetrahydro-1H-pyrazolo[3,4-c]pyridine-3-carboxamide] | 3000 to 10000 nM | > 40 µM
3 | CN1CCc2ccc(N3CCc4c(C5=NCCO5)nn(-c5cccc(Cl)c5)c4C3=O)cc2C1=O [Example 1353, 7-(1-(3-Chlorophenyl)-3-(4,5-dihydrooxazol-2-yl)-7-oxo-1,4,5,7-tetrahydro-6H-pyrazolo[3,4-c]pyridin-6-yl)-2-methyl-3,4-dihydroisoquinolin-1 (2H)-one] | 300 to 1000 nM | 3 to 10 µM
4 | CN1CCc2ccc(N3CCc4c(C#N)nn(-c5cccc(Cl)c5)c4C3=O)cc2C1=O [Example 1388, 1-(3-chlorophenyl)-6-(2-methyl-1-oxo-1,2,3,4-tetrahydroisoquinolin-7-yl)-7-oxo-4,5,6,7-tetrahydro-1H-pyrazolo[3,4-c]pyridine-3-carbonitrile] | 300 to 1000 nM | 1 to 3 µM
5 | CN1CCc2ccc(N3CCc4c(C(=O)NC(C(=O)O)c5cccnc5)nn(-c5cccc(Cl)c5)c4C3=O)cc2C1=O (stereo not drawn) [Example 1328, 2-(1-(3-chlorophenyl)-6-(2-methyl-1-oxo-1,2,3,4-tetrahydroisoquinolin-7-yl)-7-oxo-4,5,6,7-tetrahydro-1H-pyrazolo[3,4-c]pyridine-3-carboxamido)-2-(pyridin-3-yl)acetic acid] | 300 to 1000 nM | 3 to 10 µM

More lines, now with the values ahead:

Row | IC50 [1] | IC50 [2] | Compound
6 | 300 to 1000 nM | 10 to 40 µM | Cc1cc(CNC(=O)c2nn(-c3cccc(Cl)c3)c3c2CCN(c2ccc4c(c2)C(=O)N(C)CC(=O)N4C)C3=O)n[nH]1 [Example 1370, 1-(3-chlorophenyl)-6-(1,4-dimethyl-2,5-dioxo-2,3,4,5-tetrahydro-1H-benzo[e][1,4]diazepin-7-yl)-N-((5-methyl-1H-pyrazol-3-yl)methyl)-7-oxo-4,5,6,7-tetrahydro-1H-pyrazolo[3,4-c]pyridine-3-carboxamide]
7 | 1000 to 3000 nM | > 40 µM | CCNC(=O)c1nn(-c2cccc(Cl)c2)c2c1CCN(c1cccc(N3CCC4(CC4)C3=O)c1)C2=O [Example 1400, 1-(3-chlorophenyl)-N-ethyl-7-oxo-6-(3-(4-oxo-5-azaspiro[2.4]heptan-5-yl)phenyl)-4,5,6,7-tetrahydro-1H-pyrazolo[3,4-c]pyridine-3-carboxamide]
8 | 10000 to 40000 nM | > 40 µM | CCNC(=O)c1nn(-c2cccc(Cl)c2)c2c1CCN(c1cccc(N3CC4(CC4)CC3=O)c1)C2=O [Example 1389, 1-(3-chlorophenyl)-N-ethyl-7-oxo-6-(3-(6-oxo-5-azaspiro[2.4]heptan-5-yl)phenyl)-4,5,6,7-tetrahydro-1H-pyrazolo[3,4-c]pyridine-3-carboxamide]
9 | 300 to 1000 nM | 3 to 10 µM | CN1CCc2ccc(N3CCc4c(C(=O)NCC5CCCO5)nn(-c5cccc(Cl)c5)c4C3=O)cc2C1 (stereo not drawn) [Example 1025, 1-(3-chlorophenyl)-6-(2-methyl-1,2,3,4-tetrahydroisoquinolin-7-yl)-7-oxo-N-((tetrahydrofuran-2-yl)methyl)-4,5,6,7-tetrahydro-1H-pyrazolo[3,4-c]pyridine-3-carboxamide]
